Assay results: EP4685153A1 (priority 2023, dated 2024)
pIC50: −log10 of the molar value. Residues, ends and D or L forms follow the SMILES beside them. *: point of attachment. Succinyl(4-O-cholesteryl) = CC(C)CCC[C@@H](C)[C@H]1CC[C@H]2[C@@H]3CC=C4C[C@@H](OC(=O)CCC(=O)*)CC[C@]4(C)[C@H]3CC[C@]12C

Legend:
[1] = Circular dichroism of lipopeptide alone; assay type: physicochemical; details: CD, 10 µM in PBS pH 7.2
[2] = test system: HIV-1 strain NL4-3 pseudovirus; details: for pIC50: strain NL4-3 pseudovirus
[3] = test system: HIV-1 strain JRFL pseudovirus; details: for pIC50: strain JRFL pseudovirus
[4] = test system: HIV-1 strain SG3.1 living virus; details: for pIC50: strain SG3.1 living virus
[5] = test system: representative pandemic HIV-1 strain pseudoviruses; details: for pIC50: representative pandemic strain pseudoviruses, 48 h; for inhibitory activity against 12 pseudoviruses higher than that of the T20: versus T20
[6] = test system: T20-resistant mutant strains (HIV-1 strain NL4-3); details: for pIC50: T20-resistant mutant strains ( strain NL4-3, 48 h); for inhibitory activity against 12 drug-resistant mutant strains higher than that of the LP-98: versus LP-98
[7] = test system: HIV-1 envelope protein (Env); experiment: Env-mediated cell-cell fusion inhibition (DSP reporter system); details: for pIC50: read-out: average IC50 value, membrane fusion of 12 viruses, average over Env of 12 representative pandemic HIV-1 strains; for inhibitory activity against membrane fusions of 12 viruses higher than that of the T20: versus T20
N44 = N44 (Human immunodeficiency virus type 1 group M subtype B, UniProt P04578); experiment: Circular dichroism of lipopeptide complex with target sequence N44; details: CD; for Tm value of the mixture with N44: [θ]222, 20-98 °C at 2 °C/min; for α-helix content of the mixture with N44: lipopeptide and N44 each 10 µM in PBS pH 7.2
Chain of N44 (P04578 538-581): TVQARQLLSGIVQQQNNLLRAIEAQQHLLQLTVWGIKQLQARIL

[8] = In vitro cytotoxicity (CCK-8), TZM-bl cells; assay type: cell-based; details: human, CCK-8, 48 hours
Description: (§1) The in vitro cytotoxicity was detected by using a CCK-8 cell proliferation/toxicity assay kit (manufacturer: Abbkine, Cat. No.: KTC 011001). […] By using GraphPad Prism software, the inhibition rate curve was fitted and the half-maximal cytotoxic concentration (CC50) of the drug was calculated.

[9] = In vitro cytotoxicity (CCK-8), MT-4 cells; assay type: cell-based; details: human, CCK-8, 48 hours
Description: as §1

[10] = In vitro cytotoxicity (CCK-8), MDCK cells; assay type: cell-based; details: dog, CCK-8, 48 hours
Description: as §1

[11] = In vitro cytotoxicity (CCK-8), Huh-7 cells; assay type: cell-based; details: human, CCK-8, 48 hours
Description: as §1

[12] = In vitro cytotoxicity (CCK-8), Hep-2 cells; assay type: cell-based; details: human, CCK-8, 48 hours
Description: as §1

[13] = In vitro cytotoxicity (CCK-8), HEK293T cells; assay type: cell-based; details: human, CCK-8, 48 hours
Description: as §1

[14] = In vitro cytotoxicity (CCK-8), 293T/ACE2 cells; assay type: cell-based; details: human, CCK-8, 48 hours
Description: as §1

seven test cells = experiment: In vitro cytotoxicity (CCK-8), average over seven test cells; assay type: cell-based; details: CC50/IC50
Description: as §1

[15] = test system: replicative HIV-1 strain JR-CSF; details: for pIC50: replicative strain JR-CSF, 48 h
MERS-CoV = details: 48 h
EBOV = details: 48 h
MARV = details: 48 h
H7N9 = details: 48 h
RABV = details: 48 h
VSV = details: 48 h
[16] = test system: protease K, trypsin, or α-chymotrypsin
[17] = Temperature stability experiment (antiviral activity after storage); details: 300 µM aqueous solution, room temperature or 37 °C, various time periods; NL4-3 pseudovirus, TZM-bl cells
[18] = Human serum stability experiment (antiviral activity after incubation); details: 20% human serum, 37 °C, 0 to 240 minutes; NL4-3 pseudovirus, TZM-bl cells
[19] = LP-124 versus LP-122, LP-125 versus LP-123

Molecule | α-helix content, lipopeptide alone [1] [%] | pIC50 [2] | pIC50 [3] | pIC50 [4] | pIC50 [5] | inhibitory activity against 12 pseudoviruses higher than that of the T20 [5] [folds] | pIC50 [6] | inhibitory activity against 12 drug-resistant mutant strains higher than that of the LP-98 [6] [folds] | pIC50 [7] | inhibitory activity against membrane fusions of 12 viruses higher than that of the T20 [7] [folds] | Tm value of the mixture with N44 (N44) [°C] | α-helix content of the mixture with N44 (N44) [%] | pIC50 [15] | other results
CC[C@H](C)[C@H](NC(=O)[C@H](CCCCN)NC(=O)[C@H](CCCCN)NC(=O)[C@H](CCC(=O)O)NC(=O)[C@H](Cc1ccc(O)cc1)NC(=O)[C@H](CCC(=O)O)NC(=O)[C@H](CCC(=O)O)NC(=O)[C@H](Cc1ccc(O)cc1)NC(=O)[C@@H](NC(C)=O)[C@@H](C)O)C(=O)N[C@@H](CCC(=O)O)C(=O)N[C@@H](CCC(=O)O)C(=O)N[C@@H](CC(C)C)C(=O)N[C@@H](CCC(=O)O)C(=O)N[C@@H](CCCCN)C(=O)N[C@@H](CCCCN)C(=O)N[C@H](C(=O)N[C@@H](CCC(=O)O)C(=O)N[C@@H](CCC(=O)O)C(=O)N[C@@H](CC(C)C)C(=O)N[C@@H](CC(C)C)C(=O)N[C@@H](CCCCN)C(=O)N[C@@H](CCCCN)C(=O)N[C@@H](C)C(=O)N[C@@H](CCC(=O)O)C(=O)N[C@@H](CCC(=O)O)C(=O)N[C@@H](CCC(N)=O)C(=O)N[C@@H](CCC(N)=O)C(=O)N[C@@H](CCCCN)C(=O)N[C@@H](CCCCN)C(=O)N[C@@H](CC(N)=O)C(=O)N[C@@H](CCC(=O)O)C(=O)N[C@@H](C)C(=O)N[C@@H](C)C(=O)N[C@@H](C)C(=O)N[C@@H](CCCCN)C(=O)N[C@@H](CCCCNC(=O)CCC(=O)O[C@H]1CC[C@@]2(C)C(=CC[C@H]3[C@@H]4CC[C@H]([C@H](C)CCCC(C)C)[C@@]4(C)CC[C@@H]32)C1)C(N)=O)[C@@H](C)CC [LP-125] (Ac-TYEEYEKKIEELEKKIEELLKKAEEQQKKNEAAAKK(Succinyl(4-O-cholesteryl))-NH2) | 78 | 11.46 | 11.24 | 11.95 | 11.37 | 4752 | 11.20 | 423 | 10.92 | 942 | 91 | 89 | – | activity increased as compared to its template, NL4-3 pseudovirus [2, 19]: about 5 folds; activity increased as compared to its template, JRFL pseudovirus [3, 19]: ~3 folds; activity increased as compared to its template, SG3.1 living virus [4, 19]: ~3 folds
CC[C@H](C)[C@H](NC(=O)[C@H](CCCCN)NC(=O)[C@H](CCCCN)NC(=O)[C@H](CCC(=O)O)NC(=O)[C@H](Cc1c[nH]c2ccccc12)NC(=O)[C@H](CCC(=O)O)NC(=O)[C@H](CCC(=O)O)NC(=O)[C@H](Cc1c[nH]c2ccccc12)NC(=O)[C@@H](NC(C)=O)[C@@H](C)O)C(=O)N[C@@H](CCC(=O)O)C(=O)N[C@@H](CCC(=O)O)C(=O)N[C@@H](CC(C)C)C(=O)N[C@@H](CCC(=O)O)C(=O)N[C@@H](CCCCN)C(=O)N[C@@H](CCCCN)C(=O)N[C@H](C(=O)N[C@@H](CCC(=O)O)C(=O)N[C@@H](CCC(=O)O)C(=O)N[C@@H](CC(C)C)C(=O)N[C@@H](CC(C)C)C(=O)N[C@@H](CCCCN)C(=O)N[C@@H](CCCCN)C(=O)N[C@@H](C)C(=O)N[C@@H](CCC(=O)O)C(=O)N[C@@H](CCC(=O)O)C(=O)N[C@@H](CCC(N)=O)C(=O)N[C@@H](CCC(N)=O)C(=O)N[C@@H](CCCCN)C(=O)N[C@@H](CCCCN)C(=O)N[C@@H](CC(N)=O)C(=O)N[C@@H](CCC(=O)O)C(=O)N[C@@H](C)C(=O)N[C@@H](C)C(=O)N[C@@H](C)C(=O)N[C@@H](CCCCN)C(=O)N[C@@H](CCCCNC(=O)CCC(=O)O[C@H]1CC[C@@]2(C)C(=CC[C@H]3[C@@H]4CC[C@H]([C@H](C)CCCC(C)C)[C@@]4(C)CC[C@@H]32)C1)C(N)=O)[C@@H](C)CC [LP-123] (Ac-TWEEWEKKIEELEKKIEELLKKAEEQQKKNEAAAKK(Succinyl(4-O-cholesteryl))-NH2) | 56 | 10.74 | 10.84 | 11.43 | 10.56 | 732 | 10.26 | 48 | 10.62 | 466 | > 98 | 79 | – | –
CC[C@H](C)[C@H](NC(=O)[C@H](CCCCN)NC(=O)[C@H](CCCCN)NC(=O)[C@H](CCC(=O)O)NC(=O)[C@H](CC(C)C)NC(=O)[C@H](CCC(=O)O)NC(=O)[C@H](CCC(=O)O)NC(=O)[C@H](CC(C)C)NC(=O)[C@H](CCC(=O)O)NC(=O)[C@H](CCCCN)NC(=O)[C@H](CCC(=O)O)NC(=O)[C@H](Cc1ccc(O)cc1)NC(=O)[C@H](CCC(=O)O)NC(C)=O)C(=O)N[C@@H](CCC(=O)O)C(=O)N[C@@H](CCC(=O)O)C(=O)N[C@@H](CC(C)C)C(=O)N[C@@H](CC(C)C)C(=O)N[C@@H](CCCCN)C(=O)N[C@@H](CCCCN)C(=O)N[C@@H](C)C(=O)N[C@@H](CCC(=O)O)C(=O)N[C@@H](CCC(=O)O)C(=O)N[C@@H](CCC(N)=O)C(=O)N[C@@H](CCC(N)=O)C(=O)N[C@@H](CCCCN)C(=O)N[C@@H](CCCCN)C(=O)N[C@@H](CC(N)=O)C(=O)N[C@@H](CCC(=O)O)C(=O)N[C@@H](C)C(=O)N[C@@H](C)C(=O)N[C@@H](C)C(=O)N[C@@H](CCCCN)C(=O)N[C@@H](CCCCNC(=O)CCC(=O)O[C@H]1CC[C@@]2(C)C(=CC[C@H]3[C@@H]4CC[C@H]([C@H](C)CCCC(C)C)[C@@]4(C)CC[C@@H]32)C1)C(N)=O [LP-128] (Ac-EYEKELEELEKKIEELLKKAEEQQKKNEAAAKK(Succinyl(4-O-cholesteryl))-NH2) | 66 | 11.49 | 11.30 | 11.76 | 11.50 | 6286 | 11.04 | 292 | 11.40 | 2790 | 90 | 84 | 11.13 | CC50 at 48 h [8]: 7490 nM; CC50 at 48 h [9]: 28200 nM; CC50 at 48 h [10]: 18000 nM; CC50 at 48 h [11]: 40300 nM; CC50 at 48 h [12]: 12500 nM; CC50 at 48 h [13]: 8720 nM; CC50 at 48 h [14]: 24100 nM; therapeutic selective index (SI) (seven test cells): very high; inhibitory activity higher than that of the T20, SG3.1 ([4]; TZM-bl cells, versus T20): 4282 folds; inhibitory activity higher than the T20, JR-CSF ([15]; TZM-bl cells, versus T20): 750 folds; pIC50 (MERS-CoV): 6.34; pIC50 (EBOV): 6.56; pIC50 (MARV): 6.27; pIC50 (H7N9): 6.45; pIC50 (RABV): 5.95; pIC50 (VSV): 5.83; change in antiviral activity after treatment with three proteases [16]: no significant change; change in antiviral activity after treatment at different temperatures [17]: no significant change; change in antiviral activity after treatment with human serum [18]: no significant change
Enfuvirtide | – | – | – | 8.54 | 7.70 | – | – | – | 7.95 | – | – | – | 8.25 | –
